Each structure is given as a SMILES string.

This assay has as its target T1, SIRT1 (Homo sapiens, UniProt Q96EB6).
T1 construct: His-tag (N); made in house; host or cells: E. coli BL21(DE3), T7-promoter vector
T1 sequence (Q96EB6 1-747): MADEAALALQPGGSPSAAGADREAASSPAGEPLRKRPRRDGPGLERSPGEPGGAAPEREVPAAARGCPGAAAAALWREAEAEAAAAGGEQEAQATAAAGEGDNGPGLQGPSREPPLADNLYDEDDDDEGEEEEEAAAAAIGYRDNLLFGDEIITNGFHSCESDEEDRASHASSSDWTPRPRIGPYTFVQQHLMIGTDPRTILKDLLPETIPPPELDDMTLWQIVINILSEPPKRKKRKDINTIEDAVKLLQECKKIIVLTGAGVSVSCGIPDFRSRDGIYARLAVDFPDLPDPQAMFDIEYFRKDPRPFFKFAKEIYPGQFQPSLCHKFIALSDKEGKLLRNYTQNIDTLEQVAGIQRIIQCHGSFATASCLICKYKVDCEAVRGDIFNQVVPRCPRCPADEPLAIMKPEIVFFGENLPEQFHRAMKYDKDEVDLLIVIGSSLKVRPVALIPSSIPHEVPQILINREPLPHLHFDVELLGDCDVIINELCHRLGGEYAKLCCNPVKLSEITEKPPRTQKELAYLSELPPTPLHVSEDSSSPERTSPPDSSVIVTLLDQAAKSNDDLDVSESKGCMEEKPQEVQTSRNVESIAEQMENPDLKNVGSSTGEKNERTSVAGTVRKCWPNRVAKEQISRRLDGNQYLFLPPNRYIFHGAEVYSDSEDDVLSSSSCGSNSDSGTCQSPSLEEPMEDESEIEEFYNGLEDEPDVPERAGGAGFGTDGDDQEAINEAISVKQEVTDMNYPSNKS
The assay is described as follows: Mass spectrometry based assay for modulators of SIRT1 activity (deacetylation of p53-based acetylated peptide). Format: biochemical. The settings on record: for EC1.5: concentration of test compound that results in 150% activation of SIRT1, 0.5 μM peptide substrate, 120 μM βNAD+, 10 nM SIRT1, 25 min, 25° C.; for Emax: percent maximum fold activation of SIRT1. In outline:
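Reaction: 10 nM His-tagged human SIRT1 (E. coli-expressed) with 0.5 μM 5TMR-labelled acetylated p53-derived peptide and 120 μM NAD+, 25 min at 25 °C, pH 8 Tris-acetate buffer; formic acid quench. Deacetylation quantified by mass spectrometry against a DMSO control; EC1.5 = concentration giving 150% activation.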

On to `O=C(Nc1nccs1)c1cccn2nc(-c3ccc(OCCN4CCOCC4)cc3C(F)F)nc12` [Compound 265, 2-(2-(difluoromethyl)-4-(2-morpholinoethoxy)phenyl)-N-(thiazol-2-yl)-[1,2,4]triazolo[1,5-a]pyridine-8-carboxamide], for which the EC1.5 entry is reported as “B (EC1.5 1-25 uM)” and the Emax is under 200%.
With `O=C(Nc1nc(CN2CCOCC2)cs1)c1cccn2cc(-c3ccc(C(F)F)cc3)nc12` [Compound 204], the EC1.5 result is on record as “B (EC1.5 1-25 uM)” and the Emax is over 200%.
Regarding `O=C(Nc1cccn2cc(-c3cccc(C(F)(F)F)c3)nc12)c1ncccn1` [Compound 122, N-(2-(3-(trifluoromethyl)phenyl)imidazo[1,2-a]pyridin-8-yl)pyrimidine-2-carboxamide], the EC1.5 result was “B (EC1.5 1-25 uM)” and the maximal response (Emax) is over 200%.
With `O=C(Nc1nccs1)c1cccn2cc(-c3ccc(C(F)F)cc3)nc12` [Compound 202, 2-(4-(difluoromethyl)phenyl)-N-(thiazol-2-yl)imidazo[1,2-a]pyridine-8-carboxamide], the EC1.5 result is “C (EC1.5>25 uM)” and the maximum response (Emax) was under 200%.
As for `O=C(Nc1ccccn1)c1cccn2cc(-c3cccc(F)c3)nc12` [Compound 155], the EC1.5 entry was “C (EC1.5>25 uM)” and the maximal response (Emax) was under 200%.
As for `O=C(Nc1ccccn1)c1cccn2cc(-c3ccc(CN4CCCC4)cc3)nc12` [Compound 253], the EC1.5 result was “B (EC1.5 1-25 uM)” and the Emax is over 200%.
Taken in the same sequence, the figures for `O=C(Nc1cccn2cc(-c3cccc(C(F)(F)F)c3)nc12)c1ccncc1` [Compound 119] were “C (EC1.5>25 uM)” and under 200%.
As for `O=C(Nc1ccccn1)c1cccn2nc(-c3cc(Cl)ccc3C(F)(F)F)nc12` [Compound 224], the EC1.5 result is recorded as “B (EC1.5 1-25 uM)” and the Emax is under 200%.
For `O=C(Nc1ccccn1)c1nccn2cc(-c3ccc(N4CCCC4)cc3)nc12` [Compound 169], the EC1.5 result was “C (EC1.5>25 uM)” and the maximal effect (Emax) is under 200%.
On to `O=C(Nc1nccs1)c1cccn2cc(-c3ccccc3)nc12` [Compound 106], for which the EC1.5 entry is recorded as “B (EC1.5 1-25 uM)” and the maximal effect (Emax) was under 200%.
Taken in the same sequence, the figures for `O=C(Nc1nc(CN2CCOCC2)cs1)c1cccn2cc(-c3ccc(F)cc3F)nc12` [Compound 198] were “A (EC1.5<1.0 uM)” and under 200%.
Take `O=C(Nc1nccs1)c1cccn2cc(-c3cccc(CN4CCOCC4)c3)nc12` [Compound 254]: the EC1.5 entry was “A (EC1.5<1.0 uM)” and the Emax was over 200%.
Taken in the same sequence, the figures for `O=C(NC1CCCC1)c1cccn2cc(-c3cccc(OC(F)(F)F)c3)nc12` [Compound 114] were “C (EC1.5>25 uM)” and under 200%.
For `O=C(Nc1nccs1)c1cccn2nc(-c3cc(Cl)ccc3C(F)(F)F)nc12` [Compound 223], in that order: “B (EC1.5 1-25 uM)” and under 200%.
As for `O=C(Nc1nc(CN2CCOCC2)cs1)c1cccn2cc(-c3cccc(OC(F)(F)F)c3)nc12` [Compound 133], the EC1.5 result is reported as “A (EC1.5<1.0 uM)” and the Emax is over 200%.
For the compound `O=C(Nc1cccc(CN2CCOCC2)n1)c1cccn2cc(-c3cc(F)c(F)c(F)c3)nc12` [Compound 197], the EC1.5 result is listed as “B (EC1.5 1-25 uM)” and the maximal response (Emax) is over 200%.
Taken in the same sequence, the figures for `O=C(Nc1ccccn1)c1cccn2cc(-c3ccccc3F)nc12` [Compound 153] were “C (EC1.5>25 uM)” and under 200%.
For `O=C(Nc1cccn2cc(-c3ccccc3)nc12)C1CCNCC1` [Compound 103], in that order: “C (EC1.5>25 uM)” and under 200%.
Taken in the same sequence, the figures for `O=C(Nc1nccs1)c1cccn2cc(-c3ccc(C(F)(F)F)cc3)nc12` [Compound 150] were “C (EC1.5>25 uM)” and under 200%.
For `O=C(Nc1cccn2cc(-c3cccc(-c4ccccc4)c3)nc12)c1ccncc1` [Compound 124], the EC1.5 entry is “C (EC1.5>25 uM)” and the Emax is under 200%.
Taken in the same sequence, the figures for `Cc1cc(-c2nc3c(C(=O)Nc4ccccn4)cccn3n2)ccn1` [Compound 215] were “B (EC1.5 1-25 uM)” and over 200%.
Consider `Cc1ccc(-c2nc3c(C(=O)Nc4nccs4)cccn3n2)cn1` [Compound 210, 2-(6-methylpyridin-3-yl)-N-(thiazol-2-yl)-[1,2,4]triazolo[1,5-a]pyridine-8-carboxamide], for which the EC1.5 entry was “C (EC1.5>25 uM)” and the Emax was under 200%.
In the case of `O=C(Nc1nccs1)c1cccn2cc(-c3ccc(F)cc3)nc12` [Compound 156], the EC1.5 result is on record as “C (EC1.5>25 uM)” and the Emax was under 200%.
Taken in the same sequence, the figures for `O=C(Nc1nccs1)c1cccn2nc(-c3ccc(F)cc3C(F)F)nc12` [Compound 263] were “C (EC1.5>25 uM)” and under 200%.
On to `O=C(Nc1nccs1)c1cccn2cc(-c3cccc(C(F)F)c3)nc12` [Compound 206], for which the EC1.5 result is on record as “B (EC1.5 1-25 uM)” and the Emax was under 200%.
Taken in the same sequence, the figures for `O=C(Nc1cccn2cc(-c3cccc(OC(F)(F)F)c3)nc12)c1cnccn1` [Compound 105] were “C (EC1.5>25 uM)” and under 200%.
For `O=C(Nc1cccn2cc(-c3cccc(C(F)(F)F)c3)nc12)c1cccnc1` [Compound 120], in that order: “C (EC1.5>25 uM)” and under 200%.
On to `O=C(Nc1nc(CN2CCOCC2)cs1)c1cccn2cc(-c3ccc(F)c(Cl)c3)nc12` [Compound 235], for which the EC1.5 entry is “A (EC1.5<1.0 uM)” and the Emax is over 200%.
Taken in the same sequence, the figures for `O=C(Nc1ccncn1)c1nccn2cc(-c3ccccc3C(F)(F)F)nc12` [Compound 175] were “B (EC1.5 1-25 uM)” and over 200%.
Take `O=C(Nc1nc(CN2CCOCC2)cs1)c1nccn2cc(-c3ccc(F)cc3C(F)(F)F)nc12` [Compound 260]: the EC1.5 result is given as “A (EC1.5<1.0 uM)” and the maximal effect (Emax) was over 200%.
For `O=C(Nc1cccnn1)c1nccn2cc(-c3ccccc3C(F)(F)F)nc12` [Compound 174], the EC1.5 result was “B (EC1.5 1-25 uM)” and the Emax was over 200%.
Taken in the same sequence, the figures for `O=C(Nc1cccn2cc(-c3cccc(C(F)(F)F)c3)nc12)c1cscn1` [Compound 117] were “B (EC1.5 1-25 uM)” and under 200%.
For `O=C(Nc1nccs1)c1cccn2nc(-c3cc(N4CCOCC4)ccc3C(F)(F)F)nc12` [Compound 221, 2-(5-morpholino-2-(trifluoromethyl)phenyl)-N-(thiazol-2-yl)-[1,2,4]triazolo[1,5-a]pyridine-8-carboxamide], in that order: “A (EC1.5<1.0 uM)” and over 200%.
For `O=C(Nc1nccs1)c1cccn2nc(-c3ccc(OCC(O)CO)cc3C(F)F)nc12` (stereo in doubt) [Compound 249, (R)-2-(2-(difluoromethyl)-4-(2,3-dihydroxypropoxy)phenyl)-N-(thiazol-2-yl)-[1,2,4]triazolo[1,5-a]pyridine-8-carboxamide], the EC1.5 result was “C (EC1.5>25 uM)” and the Emax was under 200%.
Taken in the same sequence, the figures for `Cc1ccc(-c2cn3ccnc(C(=O)Nc4cccc(CN5CCOCC5)n4)c3n2)cn1` [Compound 165] were “B (EC1.5 1-25 uM)” and under 200%.
Regarding `O=C(Nc1cccc(CN2CCOCC2)n1)c1cccn2cc(-c3cccc(Cl)c3)nc12` [Compound 234], the EC1.5 entry is “A (EC1.5<1.0 uM)” and the Emax was over 200%.
Take `O=C(Nc1nc(CN2CCOCC2)cs1)c1cccn2cc(-c3cccc(C(F)F)c3)nc12` [Compound 208]: the EC1.5 entry was “A (EC1.5<1.0 uM)” and the maximum response (Emax) was over 200%.
`Cc1ccc(-c2nc3c(C(=O)Nc4nc(CN5CCOCC5)cs4)cccn3n2)cn1` [Compound 212]: the EC1.5 result was “B (EC1.5 1-25 uM)” and the maximal response (Emax) is under 200%.
Consider `O=C(Nc1cccc(CN2CCOCC2)n1)c1cccn2cc(-c3ccc(F)c(Cl)c3)nc12` [Compound 236], for which the EC1.5 entry is recorded as “A (EC1.5<1.0 uM)” and the Emax is over 200%.
Taken in the same sequence, the figures for `O=C(Nc1ccccc1)c1cccn2cc(-c3cccc(OC(F)(F)F)c3)nc12` [Compound 116] were “C (EC1.5>25 uM)” and under 200%.
For `O=C(Nc1cccnn1)c1nccn2cc(-c3ccc(F)cc3C(F)(F)F)nc12` [Compound 191], in that order: “B (EC1.5 1-25 uM)” and over 200%.
For `O=C(Nc1cccc(CN2CCOCC2)n1)c1cccn2cc(-c3cc(F)ccc3F)nc12` [Compound 201], in that order: “A (EC1.5<1.0 uM)” and over 200%.

For orientation: Emax means the size of the effect at its maximum, as opposed to the concentration needed.
